Test results published in patent US6525043B2, “Use of ion channel modulating agents” (NeuroSearch A/S, priority 1999, dated 2003).

Target: T1, Intermediate-conductance Ca2+-activated K+ channels (IK channels) (Homo sapiens, UniProt O15554)
T1 construct: expressed in transfected cells
Test: Whole-cell patch-clamp recording of ionic current through IK channels stably expressed in HEK293 cells
Assay type: cell-based
Conditions: hIK in HEK293 cells, voltage-ramps -100 to +100 mV, free Ca2+ 100 nM, room temperature
Method: In this experiment the ionic current through Intermediate-conductance Ca^2+-activated K^+channels (IK channels) is recorded in the whole-cell mode of the patch-clamp technique.
Intermediate-conductance Ca^2+-activated K^+ channels (IK channels) have been cloned from human placenta and stably expressed in HEK293 cells.
Human IK (hIK) was excised from pT3T7 (GenBank Acc. No. N56819) using EcoR I and Not I and sub-cloned into the mammalian expression vector pNS1Z (NeuroSearch), a custom designed derivative of pcDNA3Zeo (InVitrogen) to give the plasmid construct pNS1Z13 hIK. HEK293 tissue culture cells were grown in DMEM (Dulbecco's Modified Eagle Medium) supplemented with 10% FCS (foetal calf serum) at 37° C. in 5% CO2. […]
Experiments are carried out on one of several patch-clamp set-ups. […] Data are stored directly on the hard-disk and analysed by the IGOR software (Wavemetrics, Lake Oswega, Oreg., USA).
The whole-cell configuration of the patch clamp technique is applied. […] Cell capacitance is electronically compensated and the resistance between the pipette and the cell interior (the series resistance, Rs) is measured and compensated for. […]
The intracellular (pipette) solution has the following composition (conc. in mM): 144 KCl, 10 EGTA, 1.4 MgCl2, 5.17 CaCl2, and 10 HEPES (pH=7.2). The calculated free concentration of Ca^2+ in this solution is 100 nM and that of Mg^2+ is 1 mM. […]

Row | Compound | SC100 (Stimulating Concentration required to induce a 100% increase (doubling) in the basal current) [µM]
1 | ON=C1c2ccccc2-c2ccccc21 [9H-9-fluorenone-oxime] | 0.08
2 | c1ccc2c(c1)[nH]c1ccccc12 [Carbazole, carbazole] | 0.2
